The supplement of paper PMC7840683
± gives the standard deviation of the averaged measurements.

Tested on: HepaRG
Test: LDH release cytotoxicity, % of total lysis control; higher = more cytotoxic
Conditions: 48 h
How it was run: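 Percent cytotoxicity was scaled between on-plate vehicle and total lysis controls, then averaged over duplicate wells. The cells were single-lot HepaRG on collagen I-coated 96-well plates, exposed for 48 h to eight-point half-log test chemical series topping at 100 µM in serum-free induction medium with 0.5% DMSO. Total lysis wells got 0.1% Triton X, and LDH in 50 µL spent medium was read as resorufin fluorescence (CytoTox-ONE, Tecan Safire).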

`CN(C)C(=O)C1(N2CCCCC2)CCN(CCC2(c3ccc(Cl)c(Cl)c3)CN(C(=O)c3ccccc3)CCO2)CC1` (stereo not drawn) was tested, and the LDH release cytotoxicity (0.02988 µM) was -0.742 ± 0.13%, the LDH release cytotoxicity (0.0945 µM) was -0.252 ± 0.56% and the LDH release cytotoxicity (0.298835 µM) was -0.7 ± 0.3%. For the same molecule, the LDH release cytotoxicity (0.945 µM) was -0.736 ± 0.65%, the LDH release cytotoxicity (2.98835 µM) was -0.21 ± 0.34% and the LDH release cytotoxicity (9.45 µM) was 0.674 ± 0.023%. It also gave an LDH release cytotoxicity (29.8835 µM) of 69.1 ± 16% and an LDH release cytotoxicity (94.5 µM) of 85.4 ± 2.6%.

`CN(C)C(=O)NC1(c2ccccc2)CCN(CCC2(c3ccc(F)c(F)c3)CN(C(=O)c3ccccc3)CCO2)CC1` (stereo not drawn) was tested, and the LDH release cytotoxicity (0.0297254 µM) was -1.81 ± 0.57%, the LDH release cytotoxicity (0.094 µM) was -1.79 ± 0.3% and the LDH release cytotoxicity (0.297254 µM) was -2.55 ± 0.21%. For the same molecule, the LDH release cytotoxicity (0.94 µM) was -1.66 ± 1.4%, the LDH release cytotoxicity (2.97254 µM) was -1.69 ± 1.1% and the LDH release cytotoxicity (9.4 µM) was -1.59 ± 0.17%. The LDH release cytotoxicity (29.72541 µM) was 0.14 ± 0.97% and the LDH release cytotoxicity (94 µM) was 13.5 ± 2.6%.

Molecule `CN(C)C(=O)NC1(c2ccccc2)CCN(CCCC2(c3ccc(Cl)c(Cl)c3)CCCN(C(=O)c3ccccc3)C2)CC1` (stereo not drawn) has an LDH release cytotoxicity (0.0079057 µM) of 0.117 ± 0.015%, an LDH release cytotoxicity (0.025 µM) of -1.98 ± 0.18% and an LDH release cytotoxicity (0.0790569 µM) of -1.74 ± 0.42%. For the same molecule, the LDH release cytotoxicity (0.25 µM) was -1.65 ± 0.21%, the LDH release cytotoxicity (0.790569 µM) was -1.74 ± 0.064% and the LDH release cytotoxicity (2.5 µM) was -1.23 ± 1%. It also gave an LDH release cytotoxicity (7.90569 µM) of -0.502 ± 1% and an LDH release cytotoxicity (25 µM) of 77 ± 4.5%.

`CNCc1ccc(NC(=O)c2c[nH]c3c2C(=O)CCC3)cc1` showed an LDH release cytotoxicity (0.03162 µM) of -1.87 ± 1.2%, an LDH release cytotoxicity (0.1 µM) of -0.925 ± 0.22% and an LDH release cytotoxicity (0.3162278 µM) of -1.24 ± 0.49%. It also gave an LDH release cytotoxicity (1 µM) of -1.23 ± 0.55%, an LDH release cytotoxicity (3.16228 µM) of -1.06 ± 0.37% and an LDH release cytotoxicity (10 µM) of -0.719 ± 0.61%. It also gave an LDH release cytotoxicity (31.6228 µM) of -0.723 ± 0.24% and an LDH release cytotoxicity (100 µM) of -1.06 ± 0.15%.

In the case of `COc1cc(C(=O)NC2CCN(C)CC2)ccc1Nc1ncc2c(n1)N(C1CCCC1)CC(F)(F)C(=O)N2C`, the LDH release cytotoxicity (0.02941 µM) is reported as -0.558 ± 1.5%, the LDH release cytotoxicity (0.093 µM) is reported as 1.88 ± 0.43% and the LDH release cytotoxicity (0.294092 µM) is reported as 6.47 ± 1.2%. It also gave an LDH release cytotoxicity (0.93 µM) of 10.3 ± 0.45%, an LDH release cytotoxicity (2.9409182 µM) of 9.21 ± 3.6% and an LDH release cytotoxicity (9.3 µM) of 12.6 ± 0.61%. The LDH release cytotoxicity (29.4092 µM) was 88.1 ± 6.3% and the LDH release cytotoxicity (93 µM) was 90.9 ± 9.2%.

In the case of `COc1cc(-c2nc(NC(=O)c3cc4cc(C)cc(C)c4n3CC(=O)O)sc2CCC2CCCCC2)c(OC)cc1Cl`, the LDH release cytotoxicity (0.0267212 µM) is reported as 0.271 ± 0.48%, the LDH release cytotoxicity (0.0845 µM) is reported as -0.13 ± 0.2% and the LDH release cytotoxicity (0.267213 µM) is reported as -0.107 ± 0.19%. The LDH release cytotoxicity (0.845 µM) was 0.419 ± 0.64%, the LDH release cytotoxicity (2.67212 µM) was -0.184 ± 1% and the LDH release cytotoxicity (8.45 µM) was 37.3 ± 4.1%. For the same molecule, the LDH release cytotoxicity (26.7212 µM) was 67.7 ± 1.7% and the LDH release cytotoxicity (84.5 µM) was 78.3 ± 3.5%.
